Assay [1] concerns the target T1, PRMT5 (Homo sapiens, UniProt O14744).
T1 construct: purchased Viva (custom protein)
Kind of assay: PRMT5 biochemical IC50 assay with SAM as cofactor. Conditions: PRMT5, SAM as cofactor; read-out: SAM IC50.

Assay [2] deals with HAP1 MTAP-deleted cell line. The experiment in a line: SDMA in-cell western assay, HAP1 MTAP-deleted. In kind it is cell-based. Conditions: for IC50: Homo sapiens, HAP1, SDMA in-cell western, HAP1 MTAP-deleted, read-out: HAP 1 MTAP deleted IC50; for MTAP intact/deleted ratio: IC50 ratio HAP1 MTAP-intact / HAP1 MTAP-deleted, SDMA in-cell western. The procedure, abridged: (§1)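 IC50 values come from SDMA signal quantified by in-cell western in two HAP1 lines, one with native MTAP levels and one lacking MTAP.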

Assay [3] deals with HAP1 MTAP-intact cell line. The experiment in a line: SDMA in-cell western assay, HAP1 MTAP-intact. In kind it is cell-based. The settings on record: Homo sapiens, HAP1, SDMA in-cell western, HAP1 MTAP-intact; read-out: MTAP HAP1 intact IC50. Summed up:
as §1

In assay [4] the target is T1, PRMT5. The experiment in a line: PRMT5 biochemical IC50 assay with no cofactor. Conditions: PRMT5, no cofactor; read-out: No Cofactor/ rel IC50. From the text: Table 1 indicates IC50 values (μM) against PRMT5 for exemplary compounds in the presence of SAM as cofactor, with no cofactor, and with MTA as cofactor, respectively (columns 4-6). […] Ki values can be calculated from the IC50 values as described in the Examples section. As detailed in the Examples section, for the assay performed in the presence of SAM, IC50=Ki×1.5 (Ki=IC50/1.5).

For assay [5], the system named is HAP1 MTAP-deleted cell line. The experiment in a line: Viability assay, MTAP-deleted cell line. The class given is cell-based. The settings on record: Homo sapiens, HAP1, viability assay, MTAP-deleted cell line; read-out: HAP1 MTAP deleted viability. The text has this: Table 1 additionally indicates IC50 values in a viability assay for the MTAP-deleted cell line (column 10), indicating the effect of treatment with compound on cell survival.

Assay [6] addresses T1, PRMT5. Kind of assay: PRMT5 biochemical IC50 assay with MTA as cofactor. The settings on record: PRMT5, MTA as cofactor; read-out: MTA IC50.

SMILES strings stand for the structures.

T1 sequence (O14744 whole entry): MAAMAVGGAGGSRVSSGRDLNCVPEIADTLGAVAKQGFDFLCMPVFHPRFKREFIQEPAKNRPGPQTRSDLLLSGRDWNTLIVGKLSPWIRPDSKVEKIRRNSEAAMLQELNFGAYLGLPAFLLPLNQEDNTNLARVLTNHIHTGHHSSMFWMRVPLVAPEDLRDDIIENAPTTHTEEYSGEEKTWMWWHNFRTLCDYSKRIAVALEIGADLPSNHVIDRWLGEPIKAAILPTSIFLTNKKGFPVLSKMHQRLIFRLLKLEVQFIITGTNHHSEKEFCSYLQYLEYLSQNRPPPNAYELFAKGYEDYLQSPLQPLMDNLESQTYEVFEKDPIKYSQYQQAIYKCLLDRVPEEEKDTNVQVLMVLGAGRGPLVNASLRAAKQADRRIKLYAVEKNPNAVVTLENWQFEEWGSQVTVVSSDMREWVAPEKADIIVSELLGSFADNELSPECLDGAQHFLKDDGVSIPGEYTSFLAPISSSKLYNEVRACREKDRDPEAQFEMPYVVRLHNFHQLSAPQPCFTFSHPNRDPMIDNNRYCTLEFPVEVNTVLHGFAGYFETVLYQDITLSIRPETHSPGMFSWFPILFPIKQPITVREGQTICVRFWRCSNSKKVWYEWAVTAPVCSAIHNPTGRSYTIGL
T1 sequence (Q9BQA1 whole entry partner): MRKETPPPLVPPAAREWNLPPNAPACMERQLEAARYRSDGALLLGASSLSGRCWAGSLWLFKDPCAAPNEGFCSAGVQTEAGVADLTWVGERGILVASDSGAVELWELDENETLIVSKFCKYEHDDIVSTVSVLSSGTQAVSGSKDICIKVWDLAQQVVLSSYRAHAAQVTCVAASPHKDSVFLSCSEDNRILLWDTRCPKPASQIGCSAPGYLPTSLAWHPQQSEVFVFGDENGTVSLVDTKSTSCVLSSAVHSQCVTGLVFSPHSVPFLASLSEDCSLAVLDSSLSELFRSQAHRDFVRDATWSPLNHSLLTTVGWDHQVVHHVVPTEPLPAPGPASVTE

With `CC1(C)CCC(c2ccccc2)N(C(=O)C(=O)Nc2cncc(C(N)=O)c2)C1` (centres unmarked) [Compound 45, 5-(2-(5,5-dimethyl-2-phenylpiperidin-1-yl)-2-oxoacetamido)nicotinamide], the IC50 in assay [1] is over 500 nM; in assay [2], 100 to 1000 nM; in assay [3], over 1000 nM; in assay [4], over 500 nM; in assay [5], over 10 µM; in assay [6] it was 50 to 500 nM. Further, in assay [2], the “MTAP intact/deleted ratio” value is given as “A (an IC50 ratio greater than or equal to 10 fold)”.

Regarding `Cc1csc(C2CCCCN2C(=O)C(=O)Nc2cnc(N)c(C)c2)n1` (centres unmarked) [Compound 49, N-(6-Amino-5-methyl-3-pyridyl)-2-[2-(4-methylthiazol-2-yl)-1-piperidyl]-2-oxo-acetamide], the IC50 was 50 to 500 nM in assay [1]; 100 to 1000 nM in assay [2]; over 1000 nM in assay [3]; 50 to 500 nM in assay [4]; over 10 µM in assay [5]; under 50 nM in assay [6]. In assay [2], the “MTAP intact/deleted ratio” value is given as “A (an IC50 ratio greater than or equal to 10 fold)”.

With `Cc1cc(NC(=O)C(=O)N2CCCCC2C2CCCC2)cnc1N` (centres unmarked) [Compound 61, N-(6-amino-5-methyl-3-pyridyl)-2-(2-cyclopentyl-1-piperidyl)-2-oxo-acetamide], the IC50 in assay [1] was over 500 nM; in assay [2], under 100 nM; in assay [3], over 1000 nM; in assay [4], 50 to 500 nM; in assay [5] it was 1 to 10 µM; in assay [6] it was 50 to 500 nM. Also, in assay [2], the “MTAP intact/deleted ratio” value was “A (an IC50 ratio greater than or equal to 10 fold)”.

As for `CC(C)C1CCCCN1C(=O)C(=O)Nc1cncc(C(N)=O)c1` (centres unmarked) [Compound 100, 5-[[2-(2-isopropyl-1-piperidyl)-2-oxo-acetyl]amino]pyridine-3-carboxamide], the IC50 in assay [1] was 50 to 500 nM; in assay [2], 100 to 1000 nM; in assay [3], over 1000 nM; in assay [4] it was over 500 nM; in assay [5], over 10 µM; in assay [6] it was 50 to 500 nM. Also, the “MTAP intact/deleted ratio” value in assay [2] is given as “A (an IC50 ratio greater than or equal to 10 fold)”.

For the compound `NC(=O)c1cncc(NC(=O)C(=O)N2CCCCC2C2CCCCC2)c1` (centres unmarked) [Compound 101, 5-(2-(2-cyclohexylpiperidin-1-yl)-2-oxoacetamido)nicotinamide], the IC50 is 50 to 500 nM in assay [1]; under 100 nM in assay [2]; over 1000 nM in assay [3]; 50 to 500 nM in assay [4]; over 10 µM in assay [5]; under 50 nM in assay [6]. The “MTAP intact/deleted ratio” value in assay [2] is given as “A (an IC50 ratio greater than or equal to 10 fold)”.

For `NC(=O)c1cncc(NC(=O)C(=O)N2CCCCC2C2CCC2)c1` (centres unmarked) [Compound 103, 5-[[2-(2-cyclobutyl-1-piperidyl)-2-oxo-acetyl]amino]pyridine-3-carboxamide], the IC50 in assay [1] is 50 to 500 nM; in assay [2], 100 to 1000 nM; in assay [3], over 1000 nM; in assay [4], 50 to 500 nM; in assay [5], over 10 µM; in assay [6], under 50 nM. Moreover, the “MTAP intact/deleted ratio” value in assay [2] is on record as “A (an IC50 ratio greater than or equal to 10 fold)”.

For `Cc1cc(NC(=O)C(=O)N2CCCCC2c2cccc3c2CC(=O)N3)cnc1N` (centres unmarked) [Compound 116, N-(6-Amino-5-methyl-3-pyridyl)-2-oxo-2-[2-(2-oxoindolin-4-yl)-1-piperidyl]acetamide], the IC50 in assay [1] is 50 to 500 nM; in assay [2], 100 to 1000 nM; in assay [3], over 1000 nM; in assay [4], over 500 nM; in assay [5] it was over 10 µM; in assay [6], 50 to 500 nM. Besides, in assay [2], the “MTAP intact/deleted ratio” value is “A (an IC50 ratio greater than or equal to 10 fold)”.

As to `NC(=O)c1cncc(NC(=O)C(=O)N2CCCCC2c2ccccc2)c1N` (centres unmarked) [Compound 119, 4-amino-5-[[2-oxo-2-(2-phenyl-1-piperidyl)acetyl]amino]pyridine-3-carboxamide], the IC50 is 50 to 500 nM in assay [1]; 100 to 1000 nM in assay [2]; over 1000 nM in assay [3]; 50 to 500 nM in assay [4]; over 10 µM in assay [5]; 50 to 500 nM in assay [6]. For the same compound, the “MTAP intact/deleted ratio” value in assay [2] is reported as “A (an IC50 ratio greater than or equal to 10 fold)”.

As for `NC(=O)c1cncc(NC(=O)C(=O)N2CCCCC2c2cccs2)c1` (centres unmarked) [Compound 120, 5-[[2-Oxo-2-[2-(2-thienyl)-1-piperidyl]acetyl]amino]pyridine-3-carboxamide], the IC50 in assay [1] was 50 to 500 nM; in assay [2] it was 100 to 1000 nM; in assay [3], over 1000 nM; in assay [4] it was 50 to 500 nM; in assay [5], over 10 µM; in assay [6] it was under 50 nM. Besides, the “MTAP intact/deleted ratio” value in assay [2] was “A (an IC50 ratio greater than or equal to 10 fold)”.

As to `Cc1cc(NC(=O)C(=O)N2CCCCC2c2csc3ccccc23)cnc1N` (centres unmarked) [Compound 123, N-(6-Amino-5-methyl-3-pyridyl)-2-[2-(benzothiophen-3-yl)-1-piperidyl]-2-oxo-acetamide], the IC50 in assay [1] is 50 to 500 nM; in assay [2] it was 100 to 1000 nM; in assay [3] it was over 1000 nM; in assay [4] it was 50 to 500 nM; in assay [5], 1 to 10 µM; in assay [6], under 50 nM. Moreover, the “MTAP intact/deleted ratio” value in assay [2] is reported as “A (an IC50 ratio greater than or equal to 10 fold)”.

Take `NC(=O)c1cc(NC(=O)C(=O)N2CCCCC2c2ccccc2)cnc1N` (centres unmarked) [Compound 126, 2-Amino-5-[[2-oxo-2-(2-phenyl-1-piperidyl)acetyl]amino]pyridine-3-carboxamide]: the IC50 is 50 to 500 nM in assay [1]; over 1000 nM in assay [2]; over 1000 nM in assay [3]; over 500 nM in assay [4]; over 10 µM in assay [5]; 50 to 500 nM in assay [6]. Further, in assay [2], the “MTAP intact/deleted ratio” value was “B (an IC50 ratio greater than or equal to 3 fold but lower than 10 fold)”.

For `Cc1cc(NC(=O)C(=O)N2CCCCC2c2cccc3scnc23)cnc1N` (centres unmarked) [Compound 129, N-(6-Amino-5-methyl-3-pyridyl)-2-[2-(1,3-benzothiazol-4-yl)-1-piperidyl]-2-oxo-acetamide], the IC50 was 50 to 500 nM in assay [1]; over 1000 nM in assay [2]; over 1000 nM in assay [3]; over 500 nM in assay [4]; over 10 µM in assay [5]; 50 to 500 nM in assay [6]. Further, the “MTAP intact/deleted ratio” value in assay [2] is reported as “B (an IC50 ratio greater than or equal to 3 fold but lower than 10 fold)”.

With `Cc1cc(NC(=O)C(=O)N2CCCCC2c2cccc3c2ncn3C)cnc1N` (centres unmarked) [Compound 132, N-(6-Amino-5-methyl-3-pyridyl)-2-[2-(1-methylbenzimidazol-4-yl)-1-piperidyl]-2-oxo-acetamide], the IC50 in assay [1] is over 500 nM; in assay [2], over 1000 nM; in assay [3], over 1000 nM; in assay [4], over 500 nM; in assay [5], over 10 µM; in assay [6], 50 to 500 nM. Further, in assay [2], the “MTAP intact/deleted ratio” value was “B (an IC50 ratio greater than or equal to 3 fold but lower than 10 fold)”.

On to `O=C(Nc1cncc(CO)c1)C(=O)N1CCCCC1c1ccccc1` (centres unmarked) [Compound 136, N-(5-(hydroxymethyl)pyridin-3-yl)-2-oxo-2-(2-phenylpiperidin-1-yl)acetamide], for which the IC50 in assay [1] is over 500 nM; in assay [2], over 1000 nM; in assay [3] it was over 1000 nM; in assay [4], over 500 nM; in assay [5] it was over 10 µM; in assay [6], over 500 nM. The “MTAP intact/deleted ratio” value in assay [2] was “C (an IC50 ratio of less than 3 fold)”.

The record behind these values is patent publication US11999727B2 (Tango Therapeutics, Inc., priority 2020, dated 2024).
